In this assay the target is 5-hydroxytryptamine receptor 6 (Homo sapiens, UniProt P50406). In words: Displacement of [3H] LSD from human 5HT6 receptor expressed in HEK293 cells. Type of assay: cell-based. A general note: Displacement assays read how much labelled ligand stays bound in the presence of the test substance.

Each structure is given as a SMILES string.

As usually defined, the Ki is a dissociation constant, usually derived from enzyme kinetics or from competition with a known ligand. A lower Ki goes with a stronger hold on the target.

5-hydroxytryptamine receptor 6, sequence (P50406 whole entry): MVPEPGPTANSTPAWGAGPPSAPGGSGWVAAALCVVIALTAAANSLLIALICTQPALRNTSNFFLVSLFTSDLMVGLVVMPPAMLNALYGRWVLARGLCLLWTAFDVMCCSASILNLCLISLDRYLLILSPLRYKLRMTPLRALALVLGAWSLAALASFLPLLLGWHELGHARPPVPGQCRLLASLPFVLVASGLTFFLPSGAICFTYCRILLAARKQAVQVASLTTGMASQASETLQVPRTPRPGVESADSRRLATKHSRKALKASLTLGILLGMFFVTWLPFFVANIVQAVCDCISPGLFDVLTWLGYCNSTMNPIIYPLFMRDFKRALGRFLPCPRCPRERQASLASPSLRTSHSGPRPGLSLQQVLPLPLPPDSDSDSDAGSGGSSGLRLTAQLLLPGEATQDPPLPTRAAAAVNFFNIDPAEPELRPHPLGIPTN

Compound `CCCS(=O)(=O)n1cc(CCN(C)C)c2ccccc21` showed a Ki of 280 nM. The figure for `COc1ccc(Cn2cc(CCN(C)C)c3ccccc32)cc1` is 132 nM. `Nc1ccc(Cn2ccc3ccccc32)cc1` yielded a Ki of 8200 nM. The figure for `COc1ccc(S(=O)(=O)n2cc(CCN(C)C)c3ccccc32)cc1` is 13 nM; for `CN(C)CCc1cn(S(=O)(=O)c2ccc(C(F)(F)F)cc2)c2ccccc12` it is 1.9 nM; for `CCCCCCCCS(=O)(=O)n1cc(CCN(C)C)c2ccccc21` it is 440 nM. In the case of `CN(C)CCc1cn(S(=O)(=O)C2CCCCC2)c2ccccc12` it was 210 nM; in that of `CN(C)CCc1cn(Cc2ccc(N)cc2)c2ccccc12`, 44 nM; in that of `CN(C)CCc1cn(Cc2ccc(C(F)(F)F)cc2)c2ccccc12`, 445 nM. In the case of `Cc1ccc(S(=O)(=O)n2cc(CCN(C)C)c3ccccc32)cc1` it was 2.5 nM; in that of `CN(C)CCc1cn(Cc2ccc(Cl)cc2)c2ccccc12`, 20 nM; in that of `CCCCCS(=O)(=O)n1cc(CCN(C)C)c2ccccc21`, 220 nM. Take `Nc1ccc(S(=O)(=O)n2c3c(c4ccccc42)CCCC3)cc1`: affinity was put at a Ki of 29 nM.

As for `CN(C)CC1CCCc2c1c1ccccc1n2S(=O)(=O)c1ccccc1` (stereo not given), the inhibitory constant (Ki) worked out at 1.5 nM. Take `CC(C)S(=O)(=O)n1cc(CCN(C)C)c2ccccc21`: the Ki is 590 nM. In the case of `Cc1ccc(Cn2cc(CCN(C)C)c3ccccc32)cc1` it was 29 nM; in that of `Nc1ccc(Cn2c3c(c4ccccc42)CCCC3)cc1`, 6000 nM. In the case of `CN(C)CCc1cn(S(=O)(=O)c2ccc(Cl)cc2)c2ccccc12` it was 94 nM; in that of `CCCCS(=O)(=O)n1cc(CCN(C)C)c2ccccc21`, 135 nM. Take `CN(C)CC1CCCc2c1c1ccccc1n2Cc1ccccc1` (stereo not given): the Ki is 136 nM.

The values above are taken from ChEMBL document CHEMBL1139109, “Further studies on the binding of N1-substituted tryptamines at h5-HT6 receptors” (Bioorg Med Chem Lett, 2007).
